# In US6355799B1, “Substituted benzene compounds, process for their preparation, and herbicidal and defoliant compositions containing them” (ISK Americas Incorporated, priority 1997, dated 2002):
# Legend:
# Type in all cases: in vivo
# [1] = test system: johnsongrass (Sorghum halepense, SORHA); assay: Pre-emerge test, greenhouse herbicide activity screening; conditions: rated 14 days after application, 0 = no damage, 100 = complete death
# Outline: (§1)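 Fourteen days after spraying, crop and weed injury was graded visually from 0, no effect, to 100, every plant dead. Test substances were dissolved in acetone and applied at 15–1000 g ai/ha with a flat-fan nozzle. Application was either pre-emergence, one day after sowing, or post-emergence at the 2–3 leaf stage.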
# [2] = test system: lambsquarters (Chenopodium album, CHEAL); assay: as above; conditions: rated 14 days after application, 0 = no damage, 100 = complete death
# Outline: as §1
# [3] = test system: ivyleaf morningglory (Ipomoea hederacea, IPOHE); assay: as above; conditions: rated 14 days after application, 0 = no damage, 100 = complete death
# Outline: as §1
# [4] = test system: sicklepod (Cassia obtusifolia, CASOB); assay: as above; conditions: rated 14 days after application, 0 = no damage, 100 = complete death
# Outline: as §1
# [5] = test system: velvetleaf (Abutilon theophrasti, ABUTH); assay: as above; conditions: rated 14 days after application, 0 = no damage, 100 = complete death
# Outline: as §1
# [6] = test system: common ragweed (Ambrosia artemisizfolia L., AMBEL); assay: as above; conditions: rated 14 days after application, 0 = no damage, 100 = complete death
# Outline: as §1
# [7] = test system: green foxtail (Setaria viridis, SETVI); assay: as above; conditions: rated 14 days after application, 0 = no damage, 100 = complete death
# Outline: as §1
# [8] = test system: barnyardgrass (Echinochloa crus-galli, ECHCG); assay: as above; conditions: rated 14 days after application, 0 = no damage, 100 = complete death
# Outline: as §1
# [9] = test system: large crabgrass (Digitaria sanguinalis, DIGSA); assay: as above; conditions: rated 14 days after application, 0 = no damage, 100 = complete death
# Outline: as §1
# [10] = test system: johnsongrass (Sorghum halepense, SORHA); assay: Post-emerge test, greenhouse herbicide activity screening; conditions: post-emerge, 14 days after application, rating scale 0-100
# Outline: (§2)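 Plants grown in 10 cm pots of sandy loam mix received acetone-dissolved compounds through a moving flat-fan nozzle. Doses ranged from 15 to 1000 g ai/ha. Pre-emerge pots were seeded one day earlier, post-emerge pots 8–21 days earlier. Fourteen days on, each pot was graded 0–100 for damage.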
# [11] = test system: lambsquarters (Chenopodium album, CHEAL); assay: as above; conditions: post-emerge, 14 days after application, rating scale 0-100
# Outline: as §2
# [12] = test system: redroot pigweed (Amaranthus retroflexus, AMARE); assay: as above; conditions: post-emerge, 14 days after application, rating scale 0-100
# Outline: as §2
# [13] = test system: ivyleaf morningglory (Ipomoea hederacea, IPOHE); assay: as above; conditions: post-emerge, 14 days after application, rating scale 0-100
# Outline: as §2
# [14] = test system: sicklepod (Cassia obtusifolia, CASOB); assay: as above; conditions: post-emerge, 14 days after application, rating scale 0-100
# Outline: as §2
# [15] = test system: velvetleaf (Abutilon theophrasti, ABUTH); assay: as above; conditions: post-emerge, 14 days after application, rating scale 0-100
# Outline: as §2
# [16] = test system: common ragweed (Ambrosia artemisizfolia L., AMBEL); assay: as above; conditions: post-emerge, 14 days after application, rating scale 0-100
# Outline: as §2
# [17] = test system: green foxtail (Setaria viridis, SETVI); assay: as above; conditions: post-emerge, 14 days after application, rating scale 0-100
# Outline: as §2
# [18] = test system: barnyardgrass (Echinochloa crus-galli, ECHCG); assay: as above; conditions: post-emerge, 14 days after application, rating scale 0-100
# Outline: as §2
# [19] = test system: large crabgrass (Digitaria sanguinalis, DIGSA); assay: as above; conditions: post-emerge, 14 days after application, rating scale 0-100
# Outline: as §2
# [20] = test system: field corn (Zea mays L., var. Dekalb 535, CORN); assay: Post-emerge test, crop safety; conditions: post-emerge, 14 days after application, rating scale 0-100
# Outline: as §1
# [21] = test system: upland rice (Oryza sp., var. Tebonnet, RICE); assay: Post-emerge test, crop safety; conditions: post-emerge, 14 days after application, rating scale 0-100
# Outline: as §1
# [22] = test system: field corn (Zea mays L., var. Dekalb 535, CORN); assay: Pre-emerge test, crop safety; conditions: rated 14 days after application, 0 = no damage, 100 = complete death
# Outline: (§3)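 Sandy loam pots; pre-emerge: sown 1 d pre-spray, surface-watered after, then bottom-watered. Post-emerge: sown 8–21 d before, 2–3 leaf stage, + 0.25% v/v NIS, bottom-watered. Acetone, 187 l/ha track spray, 15–1000 g ai/ha. 0–100 injury score, day 14.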
# [23] = test system: upland rice (Oryza sp., var. Tebonnet, RICE); assay: Pre-emerge test, crop safety; conditions: rated 14 days after application, 0 = no damage, 100 = complete death
# Outline: as §3
# [24] = test system: redroot pigweed (Amaranthus retroflexus, AMARE); assay: Pre-emerge test, greenhouse herbicide activity screening; conditions: rated 14 days after application, 0 = no damage, 100 = complete death
# Outline: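 Rating: 0–100 visual injury, 14 DAA. Application: acetone, 187 l/ha, 15–1000 g ai/ha, flat-fan track sprayer with nozzle 40–45 cm above soil or canopy. Post-emerge runs used 0.25% v/v surfactant on 2–3 leaf plants.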
structure (smiles),measurement,setting,value
"COc1c(Cl)cc(F)c(-n2c(=O)cc(C(F)(F)F)n(C)c2=O)c1NC(=O)c1ccc(F)cc1F [Compound 2-42, 3-[4-chloro-2-(2,4difluorobenzoyl)amino-6-fluoro-3-methoxyphenyl]-1-methyl-6-trifluoromethyl-2,4(1H 3H)-pyrimidinedione]","Pre-emerge Herbicidal Activity, phytotoxicity rating (0-100), SORHA",[1]; 63 g ai/ha,95
same,"Pre-emerge Herbicidal Activity, phytotoxicity rating (0-100), SORHA",[1]; 250 g ai/ha,100
same,"Pre-emerge Herbicidal Activity, phytotoxicity rating (0-100), CHEAL",[2]; 63 g ai/ha,100
same,"Pre-emerge Herbicidal Activity, phytotoxicity rating (0-100), CHEAL",[2]; 250 g ai/ha,100
same,"Pre-emerge Herbicidal Activity, phytotoxicity rating (0-100), IPOHE",[3]; 63 g ai/ha,100
same,"Pre-emerge Herbicidal Activity, phytotoxicity rating (0-100), IPOHE",[3]; 250 g ai/ha,100
same,"Pre-emerge Herbicidal Activity, phytotoxicity rating (0-100), CASOB",[4]; 63 g ai/ha,80
same,"Pre-emerge Herbicidal Activity, phytotoxicity rating (0-100), CASOB",[4]; 250 g ai/ha,100
same,"Pre-emerge Herbicidal Activity, phytotoxicity rating (0-100), ABUTH",[5]; 63 g ai/ha,100
same,"Pre-emerge Herbicidal Activity, phytotoxicity rating (0-100), ABUTH",[5]; 250 g ai/ha,100
same,"Pre-emerge Herbicidal Activity, phytotoxicity rating (0-100), AMBEL",[6]; 63 g ai/ha,100
same,"Pre-emerge Herbicidal Activity, phytotoxicity rating (0-100), AMBEL",[6]; 250 g ai/ha,100
same,"Pre-emerge Herbicidal Activity, phytotoxicity rating (0-100), SETVI",[7]; 63 g ai/ha,100
same,"Pre-emerge Herbicidal Activity, phytotoxicity rating (0-100), SETVI",[7]; 250 g ai/ha,100
same,"Pre-emerge Herbicidal Activity, phytotoxicity rating (0-100), ECHCG",[8]; 63 g ai/ha,100
same,"Pre-emerge Herbicidal Activity, phytotoxicity rating (0-100), ECHCG",[8]; 250 g ai/ha,100
same,"Pre-emerge Herbicidal Activity, phytotoxicity rating (0-100), DIGSA",[9]; 63 g ai/ha,100
same,"Pre-emerge Herbicidal Activity, phytotoxicity rating (0-100), DIGSA",[9]; 250 g ai/ha,100
same,phytotoxicity rating SORHA,[10]; 63 g ai/ha,10
same,phytotoxicity rating SORHA,[10]; 250 g ai/ha,95
same,phytotoxicity rating CHEAL,[11]; 63 g ai/ha,90
same,phytotoxicity rating CHEAL,[11]; 250 g ai/ha,100
same,phytotoxicity rating AMARE,[12]; 63 g ai/ha,95
same,phytotoxicity rating AMARE,[12]; 250 g ai/ha,100
same,phytotoxicity rating IPOHE,[13]; 63 g ai/ha,100
same,phytotoxicity rating IPOHE,[13]; 250 g ai/ha,100
same,phytotoxicity rating CASOB,[14]; 63 g ai/ha,65
same,phytotoxicity rating CASOB,[14]; 250 g ai/ha,100
same,phytotoxicity rating ABUTH,[15]; 63 g ai/ha,100
same,phytotoxicity rating ABUTH,[15]; 250 g ai/ha,100
same,phytotoxicity rating AMBEL,[16]; 63 g ai/ha,70
same,phytotoxicity rating AMBEL,[16]; 250 g ai/ha,95
same,phytotoxicity rating SETVI,[17]; 63 g ai/ha,50
same,phytotoxicity rating SETVI,[17]; 250 g ai/ha,80
same,phytotoxicity rating ECHCG,[18]; 63 g ai/ha,30
same,phytotoxicity rating ECHCG,[18]; 250 g ai/ha,80
same,phytotoxicity rating DIGSA,[19]; 63 g ai/ha,0
same,phytotoxicity rating DIGSA,[19]; 250 g ai/ha,30
same,phytotoxicity rating CORN,[20]; 63 g ai/ha,10
same,phytotoxicity rating CORN,[20]; 250 g ai/ha,60
same,phytotoxicity rating RICE,[21]; 63 g ai/ha,60
same,phytotoxicity rating RICE,[21]; 250 g ai/ha,90
same,"Pre-emerge phytotoxicity rating (0-100), crop damage, CORN",[22]; 63 g ai/ha,85
same,"Pre-emerge phytotoxicity rating (0-100), crop damage, CORN",[22]; 250 g ai/ha,98
same,"Pre-emerge phytotoxicity rating (0-100), crop damage, RICE",[23]; 63 g ai/ha,90
same,"Pre-emerge phytotoxicity rating (0-100), crop damage, RICE",[23]; 250 g ai/ha,99
same,"Pre-emerge Herbicidal Activity, phytotoxicity rating (0-100), AMARE",[24]; 63 g ai/ha,100
same,"Pre-emerge Herbicidal Activity, phytotoxicity rating (0-100), AMARE",[24]; 250 g ai/ha,100
